{
  "source": "paper PMC5727165",
  "about": "“A switch in nucleotide affinity governs activation of the Src and Tec family kinases” (Scientific Reports, 2017)",
  "key": {"Itk^32K": {"target": "T1, Itk^32K (Homo sapiens, UniProt Q08881)", "T1 construct": "Human Itk^171–620 (Itk^32K); GST (cleaved yes); made in house; host or cells: baculovirus-infected Sf9 insect cells", "T1 sequence (Q08881 171-620)": "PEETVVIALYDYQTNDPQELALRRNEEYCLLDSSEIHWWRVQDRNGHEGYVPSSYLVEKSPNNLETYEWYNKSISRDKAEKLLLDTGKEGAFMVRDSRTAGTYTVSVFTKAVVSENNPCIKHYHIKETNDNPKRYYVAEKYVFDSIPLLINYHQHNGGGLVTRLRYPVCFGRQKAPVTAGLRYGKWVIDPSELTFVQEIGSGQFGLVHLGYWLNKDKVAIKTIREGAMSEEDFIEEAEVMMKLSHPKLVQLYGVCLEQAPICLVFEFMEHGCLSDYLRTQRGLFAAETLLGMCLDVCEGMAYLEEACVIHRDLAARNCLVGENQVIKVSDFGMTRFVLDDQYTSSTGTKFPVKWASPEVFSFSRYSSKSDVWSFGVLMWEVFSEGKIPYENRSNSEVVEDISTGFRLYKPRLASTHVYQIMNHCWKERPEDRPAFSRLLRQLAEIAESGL", "assay": "Competition nucleotide displacement assay (Mant-ADP, fluorescence anisotropy)", "assay_type": "binding", "procedure": "Figure 1 Autoinhibited Itk and Src kinases preferentially bind ADP. (a) Schematic of constructs evaluated in this study. Itk^32K, Src^32K, and Src^32KΔC contain the conserved module of SH3, SH2, and kinase (^32K) domains. Src^32K was truncated by […] to remove its C-terminal tail (inclusive of the Y527 phosphorylation site), generating a construct we refer to as Src^32KΔC (ΔC-tail). (b) Competition nucleotide displacement assay for Itk^32K. 40 μM Itk^32K was incubated with 40 μM Mant-ADP until equilibrium was established. Unlabelled ADP or AMPPNP was titrated into the reaction and fluorescence anisotropy monitored. Comparison of the equilibrium inhibition constants (K i) gives an indication of the relative strength of nucleotide binding. […] (c) Competition nucleotide displacement assay for Src^32K. 40 μM tail-phosphorylated Src^32K (pY527) or doubly phosphorylated Src^32K pY416 (pY527) was incubated with 40 μM Mant-ADP until equilibrium was established. Unlabelled ADP or AMPPNP was titrated into the reaction and fluorescence anisotropy monitored. Solid lines correspond to Src^32K, dashed lines to Src^32K pY416. AMPPNP binds to Src^32K with 20-fold weaker affinity than ADP. […] (d) Omit map showing clear electron density for ADP and a single magnesium ion in the nucleotide-binding pocket of Src. The magnesium is coordinated by Asn391, Asp404, and the α- and β- phosphates of ADP. The β-phosphate is directly coordinated by the guanidinium side chain of Arg388. […]\nSince the concentration of ATP in the cell is typically higher than ADP[33],[34], we performed nucleotide competition assays in order to determine which nucleotide is bound in vivo. We measured the concentrations of ADP or AMPPNP required to displace Mant-ADP. […]\nThe binding constants for ADP and AMPPNP were determined for Src and Itk proteins by fluorescence anisotropy, using 2′/3′-Mant-labelled nucleotides (Jena Bioscience). […] Unlabelled nucleotide was titrated into the reaction and fluorescence anisotropy monitored. The equilibrium inhibition constant for the unlabelled nucleotide was calculated from the fitted curve."}, "Src^32K": {"target": "T2, Src^32K (Mus musculus, UniProt P05480)", "T2 construct": "mouse Src^85-535 (Src^32K); GST (cleaved yes); made in house; host or cells: baculovirus-infected Sf9 insect cells, co-expressed with human Csk", "assay": "Fluorescence anisotropy binding of Mant-labelled nucleotides", "settings": "direct Mant-nucleotide binding", "text": "To characterise the nucleotide binding of Itk and Src, we purified recombinant wild type and mutant constructs of Itk and Src containing their respective SH3, SH2, and kinase domains (from here on referred to as Itk^32K, Src^32K, and Src^32KΔC, Fig. 1a). We confirmed the mass and homogeneity of isolated species by high-resolution anion exchange chromatography, intact mass spectrometry, and Western blotting with phospho-specific antibodies (Supplementary Figs 1–3). We performed fluorescence anisotropy measurements using Mant-labelled nucleotides. […] To avoid autophosphorylation during the course of the titration, we used the non-hydrolysable ATP analogue AMPPNP. […] Src^32K bound ADP approximately 6-fold more tightly than AMPPNP (Supplementary Fig. 4d).\nHuman Itk^171–620 (Itk^32K), mouse Src^85-535 (Src^32K), and mouse Src^85-523 (Src^32KΔC) as well as their respective point mutants were expressed as GST fusions in baculovirus-infected Sf9 insect cells. For the generation of Tyr527-phosphorylated Src^85-535, the protein was co-expressed with human Csk using pFastBac Dual (Invitrogen). Proteins were purified by sequential glutathione-sepharose affinity chromatography, TEV cleavage, high-resolution anion exchange, and size exclusion chromatography in a final buffer of 50 mM Tris, pH 7.5, 200 mM NaCl, 1 mM TCEP, 1% (v/v) glycerol.\n(§1) The binding constants for ADP and AMPPNP were determined for Src and Itk proteins by fluorescence anisotropy, using 2′/3′-Mant-labelled nucleotides (Jena Bioscience). Increasing concentrations of Itk^32K, Itk^L351A or Src^32K were incubated with 40 μM Mant-nucleotide in 30 mM Tris pH 7.5, 200 mM NaCl, 5 mM MgCl2, and 1 mM TCEP. Measurements were made with a Perkin Elmer LS50B fluorimeter (λex = 355 nm, λem = 447 nm) at 20 °C. For each data point 50–60 measurements, each with an integration time of 1 s, were averaged. For competition nucleotide displacement assays, 40–80 μM of protein was incubated with 40 μM Mant-ADP until equilibrium was established. Unlabelled nucleotide was titrated into the reaction and fluorescence anisotropy monitored. The equilibrium inhibition constant for the unlabelled nucleotide was calculated from the fitted curve."}, "Src^32KΔC": {"target": "T3, Src^32KΔC (Mus musculus, UniProt P05480)", "T3 construct": "mouse Src^85-523 (Src^32KΔC); GST (cleaved yes); made in house; host or cells: baculovirus-infected Sf9 insect cells", "assay": "Competition nucleotide displacement assay (Mant-ADP, fluorescence anisotropy)", "assay_type": "binding", "settings": "40 μM Src^32KΔC, 40 μM Mant-ADP; read-out: Ki (equilibrium inhibition constant)", "procedure": "Figure 2 Itk adopts a Src-like autoinhibited conformation. (a) Competition nucleotide displacement assay for Src^32KΔC. 40 μM Src^32KΔC was incubated with 40 μM Mant-ADP until equilibrium was established. Unlabelled ADP or AMPPNP was titrated into the reaction and fluorescence anisotropy monitored. […] (b) Small angle X-ray scattering curves for Itk^32K (cyan), Src^32K (magenta), Src^32KΔC (blue), and Src^32K R175L (green). […] (d) Table of physical parameters obtained from the scattering curves for Itk^32K, Src^32K, Src^32KΔC, and Src^32K R175L. (e)Ab initio model of Itk^32K and docking of autoinhibited Src (2SRC.pdb) into the molecular envelope. Two orientations of the envelope are shown for clarity. (f) Ab initio molecular envelope for Src^32KΔC illustrates the fit of the crystal structure of autoinhibited Src. TEXT PRINTED IN THE PICTURE: (a) ADP: Src^32KΔC Ki (mM): 0.03 ± 0.008 | (a) ANP: Src^32KΔC Ki (mM): 0.69 ± 0.140\nas §1"}, "Src^32KΔC L255A": {"target": "T4, Src^32KΔC L255A (Mus musculus, UniProt P05480, L257A)", "T4 construct": "mouse Src^85-523 (Src^32KΔC); GST (cleaved yes); made in house; host or cells: baculovirus-infected Sf9 insect cells", "assay": "Differential scanning fluorimetry (thermal stability vs nucleotide concentration)", "assay_type": "binding", "text": "(§2) Figure 3 An allosteric switch triggers nucleotide exchange. (a) Hydrophobic stack conservation in Src family kinases. The table illustrates the amino acid identity at each of the three positions in the hydrophobic stack in addition to the invariant tryptophan (Trp260 in Src) for all Src family kinase members. The positions are presented according to their N- to C-terminal order in the primary sequences. Where it was not possible to unambiguously determine the identity of the amino acid contributed by the SH2-kinase variable linker (V3), the residue is denoted by a question mark. (b) Small angle X-ray scattering of Itk^32K L351A (black). The scattering curve for wild type Itk^32K (cyan) is overlaid for comparison. […] (c) Rigid body modelling of Itk^32K L351A and fit to ab initio molecular envelope. Displacement of both the SH3 and SH2 domains is required for a good fit to the experimental scattering curve. (d) Determination of the binding constants of Itk^32K L351A for nucleotides by fluorescence anisotropy. […] (e) Determination of the thermal stabilities and relative binding affinities of non-phosphorylated Src^32KΔC L255A for nucleotides by differential scanning fluorimetry. […] TEXT PRINTED IN THE PICTURE: (d) Mant-ADP: Itk^32K L351A (non-phos) Kd (μM): 21.0 ± 2.1 | (d) Mant-ATP: Itk^32K L351A (non-phos) Kd (μM): 31.7 ± 2.7 | (e) ADP: Src^32KΔC L255A (non-phos) [nuc]1/2 (μM): 310 ± 20; Src^32KΔC L255A (non-phos) Tm^max (°C): 52.9; Src^32KΔC L255A (non-phos) ΔTm^max (°C): + 6.8 | (e) ATP: Src^32KΔC L255A (non-phos) [nuc]1/2 (μM): 100 ± 10; Src^32KΔC L255A (non-phos) Tm^max (°C): 54.2; Src^32KΔC L255A (non-phos) ΔTm^max (°C): + 8.1 | (e) apo: Src^32KΔC L255A (non-phos) Tm^max (°C): 46.1\nDue to limiting protein concentrations, we were unable to obtain a binding curve by fluorescence anisotropy, so we instead used thermal stability measurements to investigate its nucleotide-binding properties. Determination of accurate binding constants from thermal stability measurements requires knowledge of the enthalpy of unfolding. However, for a given protein, the enthalpy of unfolding is independent of the ligand being tested, so comparison of the concentrations of nucleotide required for half maximal stabilisation is valid.\nThermal stabilities as a function of nucleotide concentration were measured by differential scanning fluorimetry (DSF). Samples contained 0.1 mg/ml protein in 50 mM Tris pH 7.5, 150 mM NaCl, 1 mM TCEP, and 5 mM MgCl2 with ADP, ATP, or AMPPNP concentrations ranging from 0–16 mM. Samples were measured in triplicate using a BioRad iQ™5 Multicolor Real-Time PCR Detection System. For detection of phosphorylated protein, samples were diluted and 1 ng and 15 ng were loaded to SDS-PAGE for Src and Itk proteins, respectively. Phosphorylation was measured by immunoblot."}, "Itk^32K L351A": {"target": "T5, Itk^32K L351A (Homo sapiens, UniProt Q08881, L351A)", "T5 construct": "Human Itk^171–620 (Itk^32K); GST (cleaved yes); made in house; host or cells: baculovirus-infected Sf9 insect cells", "T5 sequence (Q08881 171-620 L351A)": "T1 sequence (Q08881 171-620) with L181A", "assay": "Fluorescence anisotropy binding of Mant-labelled nucleotides", "text": "as §2\nTo establish whether hydrophobic stack disassembly triggers a switch in nucleotide binding of the kinase domain, we measured the binding of both unphosphorylated and activation loop phosphorylated (pY511) Itk^32K L351A to ADP and ATP.\nas §1"}, "[1]": {"settings": "Src^32KΔC L255A non-phosphorylated, DSF"}, "[2]": {"settings": "Itk^32K L351A non-phosphorylated, read-out: Kd"}},
  "note": "Residue numbers refer to the chain shown, from its start. Read-outs that look alike come from different tables or passages of the source.",
  "data": [
    {"compound": "Nc1ncnc2c1ncn2[C@@H]1O[C@H](COP(=O)(O)OP(=O)(O)NP(=O)(O)O)[C@@H](O)[C@H]1O", "note": "[AMPPNP]", "values": [
      {"measurement": "Ki", "setting": "Itk^32K; 40 μM Itk^32K, 40 μM Mant-ADP, read-out: Ki (equilibrium inhibition constant)", "result": 7900, "unit": "µM"},
      {"measurement": "fold difference in Ki, AMPPNP weaker than ADP", "setting": "Itk^32K; Itk^32K, displacement of Mant-ADP", "result": "~41", "unit": "fold"},
      {"measurement": "fold difference in affinity, ADP tighter than AMPPNP", "setting": "Src^32K", "result": "approximately 6 fold"},
      {"measurement": "Ki", "setting": "Src^32KΔC", "result": "690 ± 140", "unit": "µM"}
    ]},
    {"compound": "Nc1ncnc2c1ncn2[C@@H]1O[C@H](COP(=O)(O)OP(=O)(O)OP(=O)(O)O)[C@@H](O)[C@H]1O", "note": "[ATP]", "values": [
      {"measurement": "additional thermal stability conferred by ATP over ADP", "setting": "Src^32KΔC L255A; Src^32KΔC L255A non-phosphorylated", "result": 1.3, "unit": "°C"},
      {"measurement": "Tm^max", "setting": "Src^32KΔC L255A; [1]", "result": 54.2, "unit": "°C"},
      {"measurement": "[nuc]1/2 (nucleotide concentration for half maximal stabilisation)", "setting": "Src^32KΔC L255A; [1]", "result": "100 ± 10", "unit": "µM"},
      {"measurement": "relative binding of ATP versus ADP", "setting": "Src^32KΔC L255A; Src^32KΔC L255A, from half maximal stabilisation concentrations", "result": "approximately three times better than ADP"},
      {"measurement": "Kd", "setting": "Itk^32K L351A; activation loop-phosphorylated (pTyr511) Itk^32K L351A, read-out: Kd (binding constant)", "result": 37, "unit": "µM"}
    ]},
    {"compound": "Mant-ADP", "values": [
      {"measurement": "Kd", "setting": "Itk^32K L351A; [2]", "result": "21 ± 2.1", "unit": "µM"}
    ]},
    {"compound": "Mant-ATP", "values": [
      {"measurement": "Kd", "setting": "Itk^32K L351A; [2]", "result": "31.7 ± 2.7", "unit": "µM"}
    ]}
  ]
}
